Literature values in article PMC6764291 (Frontiers in Oncology, 2019).

Columns and labels:
[1] = tested on: mutant p53 cells; settings: in vitro, considerably higher concentrations than required for wt p53 cell lines; cited from earlier work
Source text: As expected, the two p53 mutated cell lines did n ...

[2] = tested on: p53; design: method as in PMID 14704432; settings: cited from earlier work

Structure (SMILES) | effect on mutant p53 cells [1] | p53-expression [2]
COc1ccc(C2=N[C@H](c3ccc(Cl)cc3)[C@H](c3ccc(Cl)cc3)N2C(=O)N2CCN(C(C)=O)CC2)c(OC(C)C)c1 [Nutlin-1] | Some effect | –
COc1ccc(C2=N[C@@H](c3ccc(Cl)cc3)[C@@H](c3ccc(Cl)cc3)N2C(=O)N2CCNC(=O)C2)c(OC(C)C)c1 [Nutlin-3] | – | increased p53-expression was directly correlated to increasing concentrations
